Test results from patent US20030158152A1, “Protease inhibitors and their pharmaceutical uses” (priority 2000, published 2003).

system: HIV-1 (isolated standard virus Z2Z6) in PM1 cells; test: Anti-HIV evaluation in HIV-1-infected PM1 lymphocytic cell culture, cell viability read by MTT technique; assay type: cell-based; conditions: 10^4 cells/well, infected with HIV-1 isolate Z2Z6 at MOI 0.002, MTT cellular viability on 6th day after infection, cut-off 50% of emission of uninfected cells
Experimental: The pharmacological evaluation of the derivatives obtained was undertaken using test plates with a PM1 strain cell culture, lymphocytic strain established in culture, expressing the receptors CD4+ and co-receptors C5 and R4 of the HIV-1 and producers of syncytium, incubated with isolated standard virus Z2Z6 purified by passage in cell culture PM-1, having a titer of 3.96×10^2 TCID50/ml. The infection was accomplished by using plates having 96 wells, each containing 10^4 cells/well, infected with a MOI (Multiplicity Of Infection) of 0.002. The compounds being evaluated were initially diluted in dimethylsulphoxide (DMSO) to a final concentration of 10 mM and subsequently diluted in base medium RPMI 1640 to 20 μM.
Nine wells of the cells infected initially with the isolated HIV Z6 were exposed to decreasing concentrations of the compounds at 20 μM by a factor of 2 (base log 2). The culture medium employed was the RPMI 1640, added with 10% bovine foetal serum, antibiotics […]/penicilyne and L-glutamine.
The last and tenth well was kept as a control of the infection, without the presence of the drug blank. Each line of ten wells was produced in triplicate, for posterior statistical analysis. INDINAVIR was used as control, in the same dilutions as the compounds being tested. Cytotoxic analysis was carried out on a fourth set of 10 (ten) wells with cells by applying the compounds of the present invention diluted as described hereinabove. The plates were kept in an oven with 5% CO2, at a temperature of 37° C. and verified daily by optical phase microscopy for the analysis of the occurance of syncytia, which was confirmed on the 4th day after infection.
The results were analysed using a Microsoft Excel matrix, with correction of the blanks, and plotting of the emission frequency graph of the assay (in percentage, using as the 100% standard the emission from the viable cells of the wells without infection) as measurement of cellular viability. The value of 50% of emission of the standard was considered as cut-off point for the IC50 calculation. This value was attained, after plotting on the graph of the logarithmic regression curve equation, the points obtained from the IC curve prior to the formation of the plateau of the curve.

Molecule | IC50 [µM]
CC(O)C(C)O (stereo not shown) [Compound 11b] | > 100

same assay, conditions: 10^4 cells/well, infected with HIV-1 isolate Z2Z6 at MOI 0.002, MTT cellular viability on 6th day after infection, cut-off 50% of emission of uninfected cells, read-out: IC50

Molecule | IC50 [µM]
1,4-di(benzylamine)-(2S,3S)-butane-2,3-diol [Compound 2a] | > 100
1N,4N-di[1-carbetoxy-2-(1H-3-indoyl)-(1S)-ethyl]-2,3-dihydroxy-(2S,3S)-butanediamide [Compound 3g] | > 100
1N,4N-di[1-carbetoxy-2-methyl-(1S)-propyl]-2,3-dihydroxy-(2S,3S)-butanediamide [Compound 3b] | > 100
1N,4N-di[1-carbetoxy-2-phenyl-(1S)-ethyl]-2,3-dihydroxy-(2S,3S)-butanediamide [Compound 3e] | > 100
1N,4N-di[1-carbetoxy-3-methyl-(1S)-butyl]-2,3-dihydroxy-(2S,3S)-butanediamide [Compound 3c] | 10
1N,4N-di[2-(4-hydroxyphenyl)-1-carbetoxy-1-(1S)-ethyl]-2,3-dihydroxy-(2S,3S)-butanediamide [Compound 3f] | 50
1N,4N-di[-carbetoxy-2-phenyl-(1S)-ethyl]-2,3-diacetoxy-(2S,3S)-butanediamide [Compound 10e] | 50
O=C(NCc1ccccc1)[C@@H](O)[C@H](O)C(=O)NCc1ccccc1 [Compound 1a, 1N,4N-dibenzyl-2,3-dihydroxy-(2S,3S)-butanediamide] | > 100
CCOC(=O)[C@H](C)NC(=O)[C@@H](O)[C@H](O)C(=O)N[C@@H](C)C(=O)OCC [Compound 3a, 1N,4N-di[1-carbetoxy-(1S)-ethyl]-2,3-dihydroxy-(2S,3S)-butanediamide] | > 100
CCOC(=O)[C@@H](NC(=O)[C@@H](O)[C@H](O)C(=O)N[C@H](C(=O)OCC)[C@@H](C)CC)[C@@H](C)CC [Compound 3d, 1N,4N-di[1-carbetoxy-2-methyl-(1S,2S)-butyl]-2,3-dihydroxy-(2S,35)-butanediamide] | > 100
CC(=O)O[C@H](C(=O)NCc1ccccc1)[C@H](OC(C)=O)C(=O)NCc1ccccc1 [Compound 8a, 1N,4N-dibenzyl-2,3-diacetoxy-(2S,3S)-butanediamide] | > 100
NNC(=O)[C@H](Cc1ccccc1)NC(=O)[C@@H](O)[C@H](O)C(=O)N[C@@H](Cc1ccccc1)C(=O)NN [Compound 14e, 1N,4N-di[1-carbonylhydrazine-2-phenyl-(1S)-ethyl]-2,3-dihydroxy-(2S,3S)-butanediamide] | > 100
O=C(NCc1ccccc1)[C@H](Cc1ccccc1)NC(=O)[C@@H](O)[C@H](O)C(=O)N[C@@H](Cc1ccccc1)C(=O)NCc1ccccc1 [Compound 15, 1N,4N-di[1-carbonylbenzylamine-2-phenyl-(1S)-ethyl]-2,3-dihydroxy-(2S,3S)-butanediamide] | > 100
CCOC(=O)[C@H](Cc1ccccc1)NC(=O)[C@H](OC(C)=O)[C@@H](OC(C)=O)C(=O)N[C@@H](Cc1ccccc1)C(=O)OCC [Compound 18, 1N,4N-di[1-carbetoxy-2-phenyl-(1S)-ethyl]-2,3-diacetoxy-(2R,3R)-butanediamide] | > 100
CCOC(=O)[C@H](Cc1ccccc1)NC(=O)[C@H](O)[C@@H](O)C(=O)N[C@@H](Cc1ccccc1)C(=O)OCC [Compound 19, 1N,4N-di[1-carbetoxy-2-phenyl-(1S)-ethyl]-2,3-dihydroxy-(2R,3R)-butanediamide] | > 100
CC(=O)O[C@@H](C(=O)NCc1ccccc1)[C@@H](OC(C)=O)C(=O)NCc1ccccc1 [Compound 20, 1N,4N-dibenzyl-2,3-diacetoxy-(2R,3R)-butanediamide] | > 100
O=C(NCc1ccccc1)[C@H](O)[C@@H](O)C(=O)NCc1ccccc1 [Compound 21, 1N,4N-dibenzyl-2,3-dihydroxy-(2R,3R)-butanediamide] | > 100
O[C@H](CNCc1ccccc1)[C@H](O)CNCc1ccccc1 [Compound 22, 1,4-di(benzylamine)-(2R,3R)-butane-2,3-diol] | > 100
